Measured values taken from patent US8940343B2, “Personal care composition” (Conopco Inc., priority 2010, dated 2015).

Experiments:
[1] = HPTLC photostability of Parsol 1789 spotted with potential quencher molecules (methanol stock solutions), UVR exposure, densitometry; type: physicochemical; settings: Parsol 1789 remaining on HPTLC plate after UVR 5.5 mW/cm^2 for 120 minutes; ratios by weight
Description: The method was based on spotting the HPTLC plates (in duplicate) with the sunscreen molecules of interest along with potential quencher molecules or formulations. The plate is then exposed to UVR (intensity 5.5 mW/cm^2) for 120 minutes. Following this the chromatographic separation was carried out using appropriate solvent system. Densitometry analysis is done to determine the amount of sunscreen degraded.
Stock solutions were prepared in methanol following the ratios as mentioned in the following table. 14 μL of stock solutions were loaded (3 mm width; 16 mm separation) on a 10×10 cm F254 HPTLC plate, using CAMAG LINOMAT 5 applicator equipped with a 100 μL micro-syringe (Hamilton, Switzerland). Ascending chromatography was performed at a distance of 85 mm in a TLC chamber using n-hexane-ethyl acetate 9:1 (v/v) as the mobile phase (˜10 mL). The plates were dried at room temperature and subjected to ultraviolet absorption densitometry scan. The concentration dependent fluorescent bands due to presence of sunscreens were detected with a linear scan at 310 or 357 nm, using Camag TLC Scanner 3, in the presence of deuterium source. […] 4-t-buty-4′-methoxdibenzoylmethane concentrations present on each lane were determined from densitogram peak areas; prior and after the sun exposure using Win CATS Planar chromatography manager software.

[2] = known phenolic antioxidants compared with theaflavin

| Mean Percent stability [1] | Structure (SMILES) | stabilizing property for sunscreens [2] |
| --- | --- | --- |
| 61.9% | COc1ccc(C(=O)CC(=O)c2ccc(C(C)(C)C)cc2)cc1 [Example 1a, 4-t-butyl-4′-methoxydibenzoylmethane] |  |
|  | COC(=O)c1cc(O)c(O)c(O)c1 [methyl gallate] | did not provide the stabilizing property |
